Test results reported in patent US10710984B2, “N-[(Pyrimidinylamino)propanyl]-and N-[(Pyridinylamino)-propanyl]arylcarboxamides” (Boehringer Ingelheim International GmbH, priority 2016, dated 2020).

Key:
[1] = target: T1, human orexin 2 receptor (Homo sapiens, UniProt O43614); assay: Assay B: in vitro testing of OX2R potency, OX2R IP1; assay type: cell-based; conditions: Table 4a; 0.5 nM Orexin A
T1 construct: CHO-K1 cells stably expressing the full-length human orexin 2 receptor and the aequorin photoprotein; expressed in transfected cells; host or cells: CHO-K1 (CHO-K1/hOx2)
T1 sequence (O43614 1-444): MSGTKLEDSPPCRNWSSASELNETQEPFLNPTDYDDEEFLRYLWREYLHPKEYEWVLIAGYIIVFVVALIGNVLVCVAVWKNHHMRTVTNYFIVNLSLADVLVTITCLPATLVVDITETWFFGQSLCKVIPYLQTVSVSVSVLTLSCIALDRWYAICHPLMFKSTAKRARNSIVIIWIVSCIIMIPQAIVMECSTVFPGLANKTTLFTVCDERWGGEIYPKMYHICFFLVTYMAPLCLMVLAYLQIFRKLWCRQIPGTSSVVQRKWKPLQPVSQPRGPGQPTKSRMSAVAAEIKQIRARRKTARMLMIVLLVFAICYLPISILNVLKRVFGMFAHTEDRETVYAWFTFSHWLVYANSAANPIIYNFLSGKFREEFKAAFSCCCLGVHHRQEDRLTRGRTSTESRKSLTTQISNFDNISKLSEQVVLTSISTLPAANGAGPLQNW
From the text: Activation of the orexin receptors expressed in cell lines results in an increase in intracellular IP3 concentration. IP1, a downstream metabolite of IP3, accumulates in cells following receptor activation and is stable in the presence of LiCl. Using Homogeneous Time-Resolved Fluorescence technology with Lumi4-Tb cryptate (commercially available from Cisbio Bioassay) and a suitable fluorescence plate reader. […] Chem. Genomics 2009, 3, 22-32. This technique is used to characterize pharmacological modification of the orexin receptors.
B. In Vitro Testing of OX2R Potency: OX2R IP1
IP1 measurements are performed in CHO-K1 cells stably expressing the full-length human orexin 2 receptor and the aequorin photoprotein. Cells are cultivated in Ham's nutrient mixture F12 medium with 10% fetal calf serum, in a 37° C., 95% humidity and 5% CO2 incubator. The CHO-K1/hOx2 cell mass is expanded to larger cell numbers. The cells are obtained as frozen cells in cryo-vials and stored until use at −150° C. The viability of the cells after thawing is >90%. In preparation for the assay, 24 hours before the assay, the cells are thawed at 37° C. and immediately diluted with cell culture medium. After centrifugation, the cell pellet is re-suspended in medium and then distributed into the assay plates with a density of 5000 cells/25 μL per well. The plates are incubated for one hour at room temperature to reduce edge effects before they are incubated for 24 hours at 37° C./5% CO2. Compounds are prepared by a 8-point serial dilution in DMSO and a final dilution step into assay buffer (HBSS with 20 mM HEPES, 0.1% BSA and 50 mM LiCl, pH 7.4) to ensure a final DMSO concentration of 1% in the assay. On the day of the assay, cells in the plate are washed twice with 60 μL assay buffer (20 μL buffer remained in the wells after washing), followed by adding 5 μL per well of compounds diluted in assay buffer. After 15 minutes of incubation at room temperature 5 μL per well of Orexin A peptide (final concentration: 0.5 nM) dissolved in assay buffer is added to the assay plate. The assay plate is incubated for 60 minutes at 37° C. Then 5 μL per well of Anti-IP1-Cryptate Tb solution and 5 μL per well of IP1-d2 dilution are added to all well of the plate and the plate is incubated for a further 60 minutes light protected at room temperature. The emission at 615 nm and 665 nm (Excitation wavelength: 320 nm) are measured using an EnVision reader (PerkinElmer). The ratio between the emission at 665 nm and 615 is calculated by the reader.
8-point four parametric non-linear curve fitting and determination of IC50 values and Hill slopes is performed using a regular analysis software e.g. AssayExplorer (Accelrys). In order to establish an agonist concentration independent parameter, Kb values are calculated using the following equation: IC50/((2+(A/EC50)^n)^1/n−1) (with A=concentration agonist, EC50=EC50 agonist, n=Hill slope agonist) (see P. Leff, I. G. Dougall, Trends Pharmacol. Sci. 1993, 14(4), 110-112).
Kb values from Assay A (OX1R) and Assay B (OX2R) can then provide a selectivity ratio which is independent of the agonist (Orexin A) concentration.

[2] = target: T2, human Orexin 1 receptor (Homo sapiens, UniProt O43613); assay: Assay A: in vitro testing of OX1R potency, OX1R IP1; assay type: cell-based; conditions: for Kb: Table 4a, 50 nM Orexin A
T2 construct: CHO-K1 cells stably expressing the full-length human Orexin 1 receptor and the aequorin photoprotein; expressed in transfected cells; host or cells: CHO-K1 (CHO-K1/hOx1)
T2 sequence (O43613 1-425): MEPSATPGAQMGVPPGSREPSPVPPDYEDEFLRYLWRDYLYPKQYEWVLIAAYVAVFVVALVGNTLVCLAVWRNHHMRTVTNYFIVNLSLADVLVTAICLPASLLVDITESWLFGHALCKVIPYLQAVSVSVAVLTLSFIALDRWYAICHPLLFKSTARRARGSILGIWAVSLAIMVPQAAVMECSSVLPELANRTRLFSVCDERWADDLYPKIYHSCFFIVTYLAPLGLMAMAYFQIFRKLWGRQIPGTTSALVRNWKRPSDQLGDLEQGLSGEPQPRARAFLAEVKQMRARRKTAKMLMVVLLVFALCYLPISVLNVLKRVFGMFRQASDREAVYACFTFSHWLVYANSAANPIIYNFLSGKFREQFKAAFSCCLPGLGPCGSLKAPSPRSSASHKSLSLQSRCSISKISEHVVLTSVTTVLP

[3] = Assay D: assessment of log P; assay type: physicochemical
Experimental: The assay was performed following the description by S. F. Donovan and M. C. Pescatore in J. Chromatogr. A 952 (2002) 47-61.

[4] = target: T3, human MDR1 P-gp (Homo sapiens, UniProt P08183); assay: Assay C: efflux in MDCK cells transfected with the human MDR1 gene; assay type: in vitro ADME; conditions: MDCK-MDR1 cell monolayers, pH 7.4, 37° C., read-out: MDCK efflux ratio (BA/AB)
T3 construct: expressed in transfected cells; host or cells: MDCK (MDCK-MDR1)
T3 sequence (P08183 whole entry): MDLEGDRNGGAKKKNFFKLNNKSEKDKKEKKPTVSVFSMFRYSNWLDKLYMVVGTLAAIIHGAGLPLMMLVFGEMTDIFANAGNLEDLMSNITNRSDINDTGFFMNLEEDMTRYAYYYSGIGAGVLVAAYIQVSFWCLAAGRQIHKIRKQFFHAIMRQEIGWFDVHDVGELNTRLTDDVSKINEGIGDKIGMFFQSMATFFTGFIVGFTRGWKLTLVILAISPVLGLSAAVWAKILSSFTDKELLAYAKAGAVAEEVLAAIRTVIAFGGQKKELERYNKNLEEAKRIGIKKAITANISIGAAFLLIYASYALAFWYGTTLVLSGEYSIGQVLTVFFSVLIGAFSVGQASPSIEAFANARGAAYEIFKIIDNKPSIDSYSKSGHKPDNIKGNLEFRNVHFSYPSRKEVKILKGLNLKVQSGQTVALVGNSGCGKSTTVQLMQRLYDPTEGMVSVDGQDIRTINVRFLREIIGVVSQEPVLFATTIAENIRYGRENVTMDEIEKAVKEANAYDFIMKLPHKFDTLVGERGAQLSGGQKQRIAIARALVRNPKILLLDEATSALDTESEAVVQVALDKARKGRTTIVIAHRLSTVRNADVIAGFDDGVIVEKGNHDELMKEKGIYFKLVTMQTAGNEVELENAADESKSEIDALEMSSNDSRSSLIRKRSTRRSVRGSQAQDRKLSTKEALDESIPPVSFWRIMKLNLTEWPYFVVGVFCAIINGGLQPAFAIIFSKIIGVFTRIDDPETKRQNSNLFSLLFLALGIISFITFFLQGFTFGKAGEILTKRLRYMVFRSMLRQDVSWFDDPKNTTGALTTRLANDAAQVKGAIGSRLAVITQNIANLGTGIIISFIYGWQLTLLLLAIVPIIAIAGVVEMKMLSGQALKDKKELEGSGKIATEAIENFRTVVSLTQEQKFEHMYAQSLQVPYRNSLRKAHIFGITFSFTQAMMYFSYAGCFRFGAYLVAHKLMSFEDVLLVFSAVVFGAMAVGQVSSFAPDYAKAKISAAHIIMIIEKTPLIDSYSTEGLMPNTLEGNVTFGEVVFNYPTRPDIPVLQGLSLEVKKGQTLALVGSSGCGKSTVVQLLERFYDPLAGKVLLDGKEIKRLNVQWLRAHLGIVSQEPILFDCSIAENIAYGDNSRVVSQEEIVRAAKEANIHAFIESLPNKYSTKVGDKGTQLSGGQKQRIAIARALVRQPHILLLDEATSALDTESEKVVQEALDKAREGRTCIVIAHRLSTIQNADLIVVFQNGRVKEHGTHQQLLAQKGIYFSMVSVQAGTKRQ
Experimental: C. Assessment of Efflux in Madin-Darby Canine Kidney (MDCK) Cells Transfected with the Human MDR1 Gene
Apparent permeability coefficients (PE) of the compounds across the MDCK-MDR1 cell monolayers are measured (pH 7.4, 37° C.) in apical-to-basal (AB) and basal-to-apical (BA) transport direction. AB permeability (PEAB) represents drug absorption from the blood into the brain and BA permeability (PEBA) drug efflux from the brain back into the blood via both passive permeability as well as active transport mechanisms mediated by efflux and uptake transporters that are expressed on the MDCK-MDR1 cells, predominantly by the overexpressed human MDR1 P-gp. The compounds are assigned to permeability/absorption classes by comparison of the AB permeabilities with the AB permeabilities of reference compounds with known in vitro permeability and oral absorption in the human. Identical or similar permeabilities in both transport directions indicate passive permeation, vectorial permeability points to additional active transport mechanisms. Higher PEBA than PEAB indicates the involvement of active efflux mediated by MDR1 P-gp. Active transport is concentration-dependently saturable.
MDCK-MDR1 cells (1-2×10e5 cells/1 cm2 area) are seeded on filter inserts (Costar transwell polycarbonate or PET filters, 0.4 μm pore size) and cultured (DMEM) for 7 days. Subsequently, the MDR1 expression is boosted by culturing the cells with 5 mM sodium butyrate in full medium for 2 days. Compounds are dissolved in appropriate solvent (like DMSO, 1-20 mM stock solutions). Stock solutions are diluted with HTP-4 buffer (128.13 mM NaCl, 5.36 mM KCl, 1 mM MgSO4, 1.8 mM CaCl2, 4.17 mM NaHCO3, 1.19 mM Na2HPO4×7H2O, 0.41 mM NaH2PO4—H2O, 15 mM HEPES, 20 mM glucose, 0.25% BSA, pH 7.4) to prepare the transport solutions (0.1-300 μM compound, final DMSO<=0.5%). The transport solution (TL) is applied to the apical or basolateral donor side for measuring A-B or B-A permeability (3 filter replicates), respectively. The receiver side contains the same buffer as the donor side. Samples are collected at the start and end of experiment from the donor and at various time intervals for up to 2 hours also from the receiver side for concentration measurement by H PLC-MS/MS or scintillation counting. Sampled receiver volumes are replaced with fresh receiver solution.

| Compound | Kb [1] [nM] | Kb [2] [nM] | chromatographic logP [3] | efflux ratio [4] | OX2R Kb/OX1R Kb [2] |
| --- | --- | --- | --- | --- | --- |
| CC[C@@H](CNc1ccc(Cl)cn1)N(C)C(=O)c1cc(C)ccc1-n1nccn1 [Ex 1 in WO2016/ 034882, reference compound] | 43.2 |  |  |  |  |
| CC[C@@H](CNc1ncc(C(F)(F)F)cn1)N(C)C(=O)c1cc(Cl)ccc1-n1nccn1 [Ex 39 in WO2016/ 034882, reference compound] | 81.5 |  |  |  |  |
| CC[C@@H](CNc1ccc(C(F)(F)F)cn1)N(C)C(=O)c1cc(Cl)ccc1-n1nccn1 [Ex 42 in WO2016/ 034882, reference compound] | 36.2 |  |  |  |  |
| CC[C@@H](CNc1ccc(C(F)(F)F)cn1)N(CC)C(=O)c1nc(C)ccc1-n1nccn1 [Ex 71 in WO2016/ 034882, reference compound] | 27.3 | 0.03 |  |  |  |
| CC[C@@H](CNc1ncc(C(F)(F)F)cn1)N(CC)C(=O)c1nc(C)ccc1-n1nccn1 [Ex 73 in WO2016/ 034882, reference compound] | 148 |  |  |  |  |
| CC[C@@H](CNc1ncc(C(F)(F)F)cn1)N(C)C(=O)c1nc(C)ccc1-c1ncccn1 [Ex 84 in WO2016/ 034882, reference compound] |  | 2.33 |  |  |  |
| CC[C@@H](CNc1ncc(C(F)(F)F)cn1)N(C)C(=O)c1c(F)cccc1-n1nccn1 [Ex 91 in WO2016/ 034882, reference compound] |  | 3.96 |  |  |  |
| CCN(C(=O)c1c(-n2nccn2)ccc(C)c1F)[C@@H](C)CNc1ncc(C(F)(F)F)cn1 [Example 1] | 21.8 | 0.041 | 2 to 4 |  |  |
| CCN(C(=O)c1cc(C)ccc1-n1nccn1)[C@@H](C)CNc1ncc(C(F)(F)F)cn1 [Example 2] | 4.14 | 0.011 | 2 to 4 | < 3 |  |
| CCN(C(=O)c1cc(C)ccc1-n1nccn1)[C@@H](C)CN(C)c1ncc(C(F)(F)F)cn1 [Example 3] | 15.2 | 0.02 | 2 to 4 | < 3 | 755 |
| CCN(C(=O)c1cc(OC)ccc1-n1nccn1)[C@@H](C)CNc1ncc(C(F)(F)F)cn1 [Example 4] | 14.4 | 0.02 | 2 to 4 | < 3 |  |
| CCN(C(=O)c1ccc(C)cc1-n1nccn1)[C@@H](C)CNc1ncc(C(F)(F)F)cn1 [Example 5] | 21.1 | 0.012 | 2 to 4 |  |  |
| CCN(C(=O)c1nc(C)sc1-c1ccccc1)[C@@H](C)CNc1ncc(C(F)(F)F)cn1 [Example 6] | 7.03 | 0.013 | 2 to 4 | < 3 |  |
| CCN(C(=O)c1ccc(Cl)cc1-n1nccn1)[C@@H](C)CNc1ncc(C(F)(F)F)cn1 [Example 7] | 23.2 | 0.025 | 2 to 4 | < 3 |  |
| CCN(C(=O)c1nc(C)sc1-c1ccc(F)cc1)[C@@H](C)CNc1ncc(C(F)(F)F)cn1 [Example 8] | 7.92 | 0.022 | 2 to 4 | < 3 |  |
| CCN(C(=O)c1cc(C)ccc1-n1nccn1)[C@@H](C)CN(C)c1ccc(Cl)cn1 [Example 9] | 4.79 | 0.0053 |  |  | 909 |
| CCN(C(=O)c1cc(C)ccc1-n1nccn1)[C@@H](C)CNc1ccc(Cl)cn1 [Example 10] | 5.57 | 0.014 |  |  |  |
| CCN(C(=O)c1cccc(F)c1-c1ncccn1)[C@@H](C)CNc1ccc(C(F)(F)F)cn1 [Example 11] | 3.15 | 0.015 | 2 to 4 |  |  |
| CCN(C(=O)c1cccc(F)c1-c1ncccn1)[C@@H](C)CNc1ccc(F)c(C(F)(F)F)n1 [Example 12] | 4.15 | 0.019 | 2 to 4 |  |  |
| CCN(C(=O)c1cc(F)ccc1-c1ncccn1)[C@@H](C)CNc1ncc(C(F)(F)F)cc1F [Example 13] | 5.16 | 0.012 | 2 to 4 |  |  |
| CCN(C(=O)c1ccc(C)c(C)c1-n1nccn1)[C@@H](C)CNc1ccc(Cl)cn1 [Example 14] | 22.9 | 0.023 |  | < 3 |  |
| CCN(C(=O)c1cccc(F)c1-n1nccn1)[C@@H](C)CNc1ccc(C(F)(F)F)cn1 [Example 15] | 3.86 | 0.0044 | 2 to 4 | < 3 |  |
| CCN(C(=O)c1cccc(F)c1-n1nccn1)[C@@H](C)CNc1ccc(Cl)cn1 [Example 17] | 11.4 | 0.043 |  |  |  |
| CCN(C(=O)c1cccc(F)c1-n1nccn1)[C@@H](C)CNc1ccc(F)c(C(F)(F)F)n1 [Example 18] | 16.3 | 0.078 | 2 to 4 |  |  |
